Experimental data as given in patent publication US20100048722A1, “FORMATION OF ACCUMBENS GluR2-LACKING AMPA RECEPTORS MEDIATES […] COCAINE CRAVING” (ROSALIND FRANKLIN UNIVERSITY OF MEDICINE AND SCIENCE, priority 2008, published 2010).
Like-named read-outs stand apart in the source and are kept apart here.

Tested on: GluR2-lacking AMPA receptors
Conditions: injection into accumbens 15 min before extinction test
Method: Male rats were trained to nose-poke (biochemical and electrophysiology experiments) or lever-press (Naspm accumbens injections experiment) for 6-h/day for 10-12 days; each cocaine infusion was paired with a tone-light or light cue. After self-administration training, the rats were tested for cue-induced cocaine-seeking after 1 or 45 withdrawal days. During testing, lever or nose-poke responding led to contingent presentations of the cue previously paired with cocaine infusions, but not cocaine. Responding on the previously active lever or hole was the operational measure of cocaine-seeking.
The rats were anesthetized using isoflurane gas (Henry Schein, Melville, N.Y.) and flunixin meglumine was administered before surgery (2 mg/kg, i.p.) as an analgesic. A silastic catheter was inserted into the right auricle through the external jugular vein, passed under the skin and fixed in the mid-scapular region. The rats recovered from surgery for at least seven days prior to beginning self-administration training sessions. During this time, catheters were flushed every 24-48 h with sterile 0.9% saline. […]

Compound: Cl.Cl.Cl.NCCCNCCCCNCCCNC(=O)Cc1cccc2ccccc12 [Naspm, 1-Naphthylacetyl spermine trihydrochloride]
- cue-induced cocaine-seeking (responses on previously active lever) (withdrawal day 1): did not alter
- cue-induced cocaine-seeking (responses on previously active lever) (withdrawal day 45): significantly reduced
